Converted amounts (≈) assume the structure as drawn.
What was measured:
[1] = target: T1, S. aureus ATCC 29213 FabI (Staphylococcus aureus, UniProt Q6GI75); test: Staphylococcus aureus FabI enzyme inhibition assay; assay type: biochemical; conditions: NADH consumption, 30 minutes, read-out: FabI (300.235) IC50 (converted)
T1 sequence (Q6GI75 1-256): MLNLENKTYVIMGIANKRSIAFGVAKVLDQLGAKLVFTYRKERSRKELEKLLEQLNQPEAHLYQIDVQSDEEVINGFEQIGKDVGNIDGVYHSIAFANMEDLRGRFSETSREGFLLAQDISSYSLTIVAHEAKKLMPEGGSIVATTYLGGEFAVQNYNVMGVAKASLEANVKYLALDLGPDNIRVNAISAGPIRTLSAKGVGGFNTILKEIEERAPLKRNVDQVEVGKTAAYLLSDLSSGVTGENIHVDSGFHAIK
Procedure: Y.1 FabI Enzyme Inhibition: Staphylococcus aureus FabI Enzyme Inhibition Assay
FabI enzyme inhibition assays were carried out in half-area, 384-well microtitre plates. […] The reaction mixtures were incubated for 30 minutes at room temperature and the reaction was stopped by adding 200 mM Tris buffer (pH 9.0) to create a pH-shift. The consumption of NADH was monitored by measuring the change in absorbance at […]. By comparing sample readings to those of negative (absence of compound) and positive (absence of enzyme) controls, the percent inhibition of enzymatic activity of the compounds was determined A best-fit curve is fitted by a minimum of squares method. From this an IC50-value (expressed in μg/ml), resulting in 50% inhibition of enzymatic activity, was obtained.

[2] = test system: Staphylococcus aureus ATCC 29213; test: Antibacterial susceptibility testing, IC90 determination (broth microdilution, resazurin); assay type: cell-based; conditions: 90% inhibitory concentration for bacterial growth; for STA (361.159) IC90: S. aureus ATCC 29213; for IC90: Staphylococcus aureus, ATCC29213, S. aureus ATCC 29213, read-out: STA (361.159) IC90
Procedure: Y.2 In Vitro Method for Testing Compounds for Antibacterial Activity Against Various Bacterial Strains
Preparation of Bacterial Suspensions for Susceptibility Testing
The following bacteria were used: Staphylococcus aureus ATCC 29213, methicillin-resistant Staphylococcus aureus (MRSA) ATCC 700788 and Escherichia coli ATCC 35218. The bacteria used in this study were grown overnight in flasks containing 100 ml Mueller-Hinton broth (Difco cat. nr. 0757-17) in sterile de-ionized water, with shaking, at 37° C. Stocks were store at −70° C. until use.
Bacteria were incubated on a tryptic soy agar plate containing 5% sheep blood (Becton Dickinson cat. nr. 254053) for 18-24 hours at 35° C. in aerobic conditions (first passage). For the second passage, fresh Mueller-Hinton broth is inoculated with 5-10 colonies and grown overnight at 35° C. until turbidity (reaching log-phase) in aerobic conditions is reached. The bacterial suspension is then adjusted to 0.5 McFarland density and further diluted 1:100 in Mueller Hinton broth medium. This is used as inoculum.
The result(s) are depicted the table below (for STA ATCC 29213).
Antibacterial Susceptibility Testing: IC90 Determination
(§1) MIC assays were performed by the broth microdilution method in a 96-well format (flat-bottom microtitre plates) with a final volume of 0.1 ml Mueller Hinton broth containing two-fold serial dilutions of compounds and inoculated with 5×10^5 CFU/ml of bacteria (standard inoculum size according to CLSI guidelines). Inhibitors are typically varied over the range of 63 to 0.49 μM. The final DMSO concentration in the assay was 1.25% (maximum tolerable DMSO concentration=6%). In the assays where the effect of human serum on the activity of the compounds against S. aureus was tested, human serum was added at a final concentration of 10%. The plates were incubated at 35° C. for 16-20 hours. At the end of incubation the bacterial growth was quantified fluorometrically. For this, resazurin was added to all wells and the plates were re-incubated. The incubation time is dependent on the type of bacteria. A change in color from blue to pink indicated the growth of bacteria. The fluorescence was read in computer-controlled fluorometer (Fluoroskan Ascent FL, Labsystems) at an excitation wavelength 540 nm and an emission wavelength of 590 nm. The % growth inhibition achieved by the compounds was calculated according to standard methods. The IC90 (expressed in μg/ml) was defined as the 90% inhibitory concentration for bacterial growth. A panel of reference compounds were simultaneously tested for QC approval.

Human HelaM cells = test: Cytotoxicity MTT assay; assay type: cell-based; conditions: 72 hours
Procedure: (§2) Cytotoxicity of the compounds was evaluated using the MTT assay. Human HelaM cells grown in 96-well plates were exposed to serial dilutions of the tested compounds (final volume of 0.2 ml) and incubated for 72 hours at 37° C. and 5% CO2 Inhibitors are typically varied over the range of 25 to 0.8 μM. The final DMSO concentration in the assay is 0.5%. MTT (3-(4,5-Dimethylthiazol-2-yl)-2,5-diphenyltetrazolium bromide, a tetrazole) was added and reduced to purple formazan only in living cells. Solubilization of the formazan crystals was achieved by adding 100 μl 2-propanol. Cell viability was determined by measuring the absorbance of the reduced formazan, giving a purple color, at 540 nm and 690 nm. The absorbance measured at 690 nm was automatically subtracted from the absorbance at 540 nm, to eliminate the effects of non-specific absorption. The percent cytotoxicity achieved by the compounds was calculated according to standard methods. Cytotoxicity is reported as CC50, the concentration that causes a 50% reduction in cell viability.
(§3) The results are depicted in the table(s) below (HELAM).

S. aureus = test: Antibacterial susceptibility testing, IC90 determination with 10% human serum; assay type: cell-based, Staphylococcus aureus; conditions: S. aureus with human serum at final concentration of 10%; for IC90: Staphylococcus aureus, read-out: STA + 10% HS (361.169) IC90
Procedure: as §1, with “Antibacterial Susceptibility Testing: IC90 Determination MIC” for “MIC”, “approval. The results are depicted in the table(s) below (STA+10% HS).” for “approval.”

Cytotoxicity MTT assay = assay type: cell-based, Human; conditions: human, HelaM cells, read-out: HELAM (222.125) CC50
Procedure: as §2, §3

| Compound | IC50 [1] | STA (361.159) IC90 [2] | HELAM (222.125) CC50 (Human HelaM cells) | STA + 10% HS (361.169) IC90 (S. aureus) | IC90 [2] | melting point | IC90 (S. aureus) | CC50 at 72 h (Cytotoxicity MTT assay) |
| --- | --- | --- | --- | --- | --- | --- | --- | --- |
| CN1CC(=O)Nc2ncc(/C=C/C(=O)N3CCC=C(c4ccccc4)CC3)cc2C1 [compound 40] | 721 nM | 0.53 µg/mL | 24.25 µg/mL | 0.60 µg/mL |  |  |  |  |
| O=C1CNCc2cc(/C=C/C(=O)N3CCC=C(c4ccccc4)CC3)cnc2N1 [compound 36] | 747 nM | 0.46 µg/mL | >19.47 µg/mL | 0.45 µg/mL |  |  |  |  |
| CN1CC(=O)Nc2ncc(/C=C/C(=O)N3CCC=C(c4ccccc4)CC3)cc2C1 [compound 38] | 820 nM |  | >10.11 µg/mL |  | 0.5 µg/mL (≈ 1.24 µM) | 198.79 °C | 0.46 µg/mL |  |
| O=C1Nc2ncc(/C=C/C(=O)N3CC=C(c4ccccc4)CCC3)cc2CN2CCOCC12 (stereo not drawn) [compound 50] | 697 nM |  |  |  | 0.64 µg/mL (≈ 1.44 µM) | 220 °C | 1.58 µg/mL | 22 µg/mL (≈ 49.5 µM) |

From patent US9296760B2, “Antibacterial compounds” (JANSSEN SCIENCES IRELAND UC, priority 2012, dated 2016)
